Source: the NIST ThermoML archive (doi:10.1016/j.jct.2018.12.014)
Numbers after ± are expanded uncertainties.

Experiments:
[1] = wn = mass fraction of the nth substance listed; details: 101 kPa, Liquid, Vibrating tube method
[2] = refractive index (Na D-line) (dimensionless); wn = mass fraction of the nth substance listed; details: 101 kPa, Liquid, Standard Abbe refractometry

C[P+](c1ccccc1)(c1ccccc1)c1ccccc1.[Br-] [methyltriphenylphosphonium bromide] + CN(CCO)CCO
Details | mass density, w1 = 0.1578 [kg/m3] | mass density, w1 = 0.2306 [kg/m3] | mass density, w1 = 0.2998 [kg/m3] | refractive index, w1 = 0.1578 | refractive index, w1 = 0.2306 | refractive index, w1 = 0.2998
[1], 293.15 K | 1086.84 ± 8.5 | 1106.7 ± 8.4 | 1124.09 ± 8.3 | – | – | –
[1], 298.15 K | 1083.1 ± 8.5 | 1102.99 ± 8.4 | 1120.4 ± 8.2 | – | – | –
[1], 303.15 K | 1079.34 ± 8.5 | 1099.26 ± 8.3 | 1116.71 ± 8.2 | – | – | –
[1], 308.15 K | 1075.59 ± 8.4 | 1095.54 ± 8.3 | 1113.03 ± 8.2 | – | – | –
[1], 313.15 K | 1071.84 ± 8.4 | 1091.82 ± 8.3 | 1109.36 ± 8.2 | – | – | –
[1], 318.15 K | 1068.08 ± 8.4 | 1088.09 ± 8.3 | 1105.69 ± 8.1 | – | – | –
[1], 323.15 K | 1064.32 ± 8.3 | 1084.36 ± 8.2 | 1102.01 ± 8.1 | – | – | –
[1], 328.15 K | 1060.54 ± 8.3 | 1080.63 ± 8.2 | 1098.34 ± 8.1 | – | – | –
[1], 333.15 K | 1056.77 ± 8.3 | 1076.9 ± 8.2 | 1094.66 ± 8.1 | – | – | –
[1], 338.15 K | 1052.98 ± 8.3 | 1073.17 ± 8.2 | 1090.99 ± 8 | – | – | –
[1], 343.15 K | 1049.19 ± 8.2 | 1069.43 ± 8.1 | 1087.31 ± 8 | – | – | –
[1], 348.15 K | 1045.47 ± 8.2 | 1065.72 ± 8.1 | 1083.63 ± 8 | – | – | –
[1], 353.15 K | 1041.65 ± 8.2 | 1062.05 ± 8.1 | 1080.06 ± 8 | – | – | –
[2], 293.15 K | – | – | – | 1.49579 ± 0.0039 | 1.50867 ± 0.0038 | 1.52077 ± 0.0038
[2], 298.15 K | – | – | – | 1.49402 ± 0.0038 | 1.50694 ± 0.0038 | 1.51904 ± 0.0038
[2], 303.15 K | – | – | – | 1.49224 ± 0.0038 | 1.50517 ± 0.0038 | 1.51732 ± 0.0038
[2], 308.15 K | – | – | – | 1.49037 ± 0.0038 | 1.5034 ± 0.0038 | 1.51557 ± 0.0038
[2], 313.15 K | – | – | – | 1.48865 ± 0.0038 | 1.50162 ± 0.0038 | 1.51383 ± 0.0038
[2], 318.15 K | – | – | – | 1.4869 ± 0.0038 | 1.49961 ± 0.0038 | 1.51212 ± 0.0038
[2], 323.15 K | – | – | – | 1.48502 ± 0.0038 | 1.49793 ± 0.0038 | 1.5103 ± 0.0038
[2], 328.15 K | – | – | – | 1.48313 ± 0.0038 | 1.49584 ± 0.0038 | 1.5083 ± 0.0038
[2], 333.15 K | – | – | – | 1.48114 ± 0.0038 | 1.4942 ± 0.0038 | 1.50644 ± 0.0038
[2], 338.15 K | – | – | – | 1.47935 ± 0.0038 | 1.49244 ± 0.0038 | 1.50466 ± 0.0038
[2], 343.15 K | – | – | – | 1.47746 ± 0.0038 | 1.49064 ± 0.0038 | 1.50288 ± 0.0038
